Values quoted from earlier work in US10052328B2, “Therapeutic composition to treat lesions caused by Herpes Simplex Virus” (G2L TOUCH, INC., priority 2009, dated 2018).

System: cold sore (labial herpes simplex)
Details: commercial topical cream, versus untreated cold sores

## Nc1nc(=O)c2ncn(CCC(CO)CO)c2[nH]1 [PCV, 2-amino-9-[4-hydroxy-3-(hydroxymethyl)butyl]-6,9-dihydro-3H-purin-6-one]
  reduction of the duration of a cold sore / lesion, on average: 0.5 days
